How the values were obtained:
[1] = test system: angiotensin converting enzyme; settings: Nature 288, 280 (1980); Chem. Pharm. Bull. 34, 1128 (1986); cited from earlier work
rabbit lung ACE = target: T1, rabbit lung ACE (Oryctolagus cuniculus, UniProt P12822); experiment: Inhibition of rabbit lung ACE by the method of Friedland and Silverstein; format: biochemical; settings: for IC50: rabbit lung ACE, method of Friedland and Silverstein, read-out: IC50 (M) = Concentration inhibiting 50% of the activity of rabbit lung ACE
T1 construct: from tissue; host or cells: rabbit lung
T1 sequence (P12822 34-1310): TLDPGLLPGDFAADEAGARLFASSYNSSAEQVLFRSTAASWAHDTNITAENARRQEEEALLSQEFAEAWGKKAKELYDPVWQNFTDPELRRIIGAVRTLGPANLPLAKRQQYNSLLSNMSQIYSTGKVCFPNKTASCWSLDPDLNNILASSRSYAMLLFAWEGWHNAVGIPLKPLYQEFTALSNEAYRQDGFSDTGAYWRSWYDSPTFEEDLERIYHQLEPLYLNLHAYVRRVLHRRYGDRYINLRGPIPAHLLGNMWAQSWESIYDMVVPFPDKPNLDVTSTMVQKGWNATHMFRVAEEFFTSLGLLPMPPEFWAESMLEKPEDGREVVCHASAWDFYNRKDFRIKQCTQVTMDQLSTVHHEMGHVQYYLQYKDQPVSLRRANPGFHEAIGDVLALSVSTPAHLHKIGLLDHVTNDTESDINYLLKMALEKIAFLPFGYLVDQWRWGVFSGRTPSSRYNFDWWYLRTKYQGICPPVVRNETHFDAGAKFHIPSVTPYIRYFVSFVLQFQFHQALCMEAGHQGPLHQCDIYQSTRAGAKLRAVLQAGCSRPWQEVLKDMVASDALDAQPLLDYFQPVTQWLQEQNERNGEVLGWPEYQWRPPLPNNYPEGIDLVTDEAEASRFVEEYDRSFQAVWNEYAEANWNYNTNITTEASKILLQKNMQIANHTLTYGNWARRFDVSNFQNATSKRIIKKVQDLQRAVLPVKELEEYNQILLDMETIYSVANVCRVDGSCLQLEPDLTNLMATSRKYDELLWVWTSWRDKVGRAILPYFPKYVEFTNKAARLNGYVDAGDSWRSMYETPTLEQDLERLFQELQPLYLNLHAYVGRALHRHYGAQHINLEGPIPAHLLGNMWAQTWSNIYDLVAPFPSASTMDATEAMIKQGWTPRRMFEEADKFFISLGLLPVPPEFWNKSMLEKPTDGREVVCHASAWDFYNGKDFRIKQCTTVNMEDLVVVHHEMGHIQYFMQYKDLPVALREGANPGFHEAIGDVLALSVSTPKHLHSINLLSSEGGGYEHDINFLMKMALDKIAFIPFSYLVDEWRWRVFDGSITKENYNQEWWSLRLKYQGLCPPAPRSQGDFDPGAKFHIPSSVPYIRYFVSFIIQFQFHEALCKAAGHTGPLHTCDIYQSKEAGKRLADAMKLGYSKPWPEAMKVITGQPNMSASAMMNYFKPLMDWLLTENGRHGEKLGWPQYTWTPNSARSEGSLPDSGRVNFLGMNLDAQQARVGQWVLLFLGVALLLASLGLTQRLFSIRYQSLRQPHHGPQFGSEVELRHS
Experimental: IC50 (M) = Concentration inhibiting 50% of the activity of rabbit
lung ACE was determined by the method of Friedland and Silverstein.

| IC50 (rabbit lung ACE) | strength of activity relative to Lisinopril (rabbit lung ACE; ACE inhibition, compared with Lisinopril) | Compound | order of strength of activity [1] |
| --- | --- | --- | --- |
|  |  | CCOC(=O)[C@H](CCc1ccccc1)N[C@@H](C)C(=O)N(CC(=O)O)C1Cc2ccccc2C1 [CV-3317] | Lisinopril>Enalapril>CV-3317 |
|  |  | CCOC(=O)[C@H](CCc1ccccc1)N[C@@H](C)C(=O)N1CCC[C@H]1C(=O)O [Enalapril] | Lisinopril>Enalapril>CV-3317 |
| 1.1e-09 M |  | NCCCC[C@H](N[C@@H](CCc1ccccc1)C(=O)O)C(=O)N1CCC[C@H]1C(=O)O [Lisinopril] | Lisinopril>Enalapril>CV-3317 |
| 1e-10 M | more than 10 times | NCCCC[C@H](N[C@@H](CCC1CCCCC1)C(=O)O)C(=O)N(CC(=O)O)C1CCCC1 [N-[N^α -(1(S)-carboxy-3-cyclohexylpropyl)-L-lysyl]-N-cyclopentylglycine] |  |

— patent US4897379A, “N-[N^α -(1(S)-carboxy-3-cyclohexylpropyl)-L-lysyl]-N-cyclopentylglycine as antihypertensives” (Asahi Breweries Ltd., priority 1987, dated 1990)
